Each block holds one compound with its values, some of them ahead of it.
Columns and labels:
5'-nucleotidase [1] = target: T1, 5'-nucleotidase (Homo sapiens, UniProt P21589); assay: Inhibition of CD73 (unknown origin)
MDA-MB-231 [2] = assay: Cytotoxicity against human MDA-MB-231 cells assessed as reduction in cell growth at 20 uM incubated for 48 hrs by CCK-8 assay relative to control; format: functional; parameters: scale not given: the % may be the effect or the level left
5'-nucleotidase [3] = target: T1, 5'-nucleotidase; assay: Binding affinity to human recombinant CD73 assessed as inhibition constant
5'-nucleotidase [4] = target: T1, 5'-nucleotidase; assay: Inhibition of C-terminal 6His-tagged human recombinant CD73 expressed in CHO cells incubated for 1 hr by malachite green based spectrophotometer assay; format: cell-based
5'-nucleotidase [5] = target: T1, 5'-nucleotidase; assay: Binding affinity to human recombinant CD73 expressed in Sf9 cells assessed as inhibition constant by malachite green based spectrophotometer assay
Homo sapiens = species: Homo sapiens; assay: Inhibition of adenosine transporter (unknown origin) at 20 uM relative to control
MDA-MB-231 [6] = assay: Inhibition of cell migration in human MDA-MB-231 cells at 10 uM incubated for 48 hrs by Transwell assay; format: functional; parameters: scale not given: the % may be the effect or the level left
4T1 = assay: Inhibition of cell migration in mouse 4T1 cells at 10 uM incubated for 48 hrs by Transwell assay; format: functional; parameters: scale not given: the % may be the effect or the level left
5'-nucleotidase [7] = target: T1, 5'-nucleotidase; assay: Inhibition of human CD73 expressed in A-375 cells incubated for 15 mins by malachite green based spectrophotometer assay; format: cell-based
5'-nucleotidase [8] = target: T1, 5'-nucleotidase; assay: Binding affinity to CD73 (unknown origin) assessed as inhibition constant
5'-nucleotidase [9] = target: T1, 5'-nucleotidase; assay: Inhibition of human recombinant CD73 (27 to 549 residues) expressed in Sf9 cells
5'-nucleotidase [10] = target: T1, 5'-nucleotidase; assay: Inhibition of CD73 (unknown origin) at 20 uM relative to control
[11] = Reversal of adenosine induced reduction in IFNgamma production in human PBMC cells; format: functional, cell-based

T1 sequence (P21589 whole entry): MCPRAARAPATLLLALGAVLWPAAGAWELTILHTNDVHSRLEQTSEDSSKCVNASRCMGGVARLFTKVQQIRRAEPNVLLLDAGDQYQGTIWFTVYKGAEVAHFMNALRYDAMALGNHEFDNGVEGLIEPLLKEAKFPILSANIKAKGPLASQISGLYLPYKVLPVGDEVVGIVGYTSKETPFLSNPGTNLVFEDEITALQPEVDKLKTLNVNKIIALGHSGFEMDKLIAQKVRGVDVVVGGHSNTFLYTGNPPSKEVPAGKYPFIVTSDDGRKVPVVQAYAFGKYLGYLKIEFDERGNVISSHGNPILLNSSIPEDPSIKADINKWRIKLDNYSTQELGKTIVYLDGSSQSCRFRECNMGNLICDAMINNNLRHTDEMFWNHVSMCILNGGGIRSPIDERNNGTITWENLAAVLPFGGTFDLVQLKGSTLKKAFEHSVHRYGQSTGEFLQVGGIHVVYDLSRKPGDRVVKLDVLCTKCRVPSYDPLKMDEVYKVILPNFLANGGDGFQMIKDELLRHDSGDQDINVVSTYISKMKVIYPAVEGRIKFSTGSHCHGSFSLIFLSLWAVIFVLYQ

IC50 (5'-nucleotidase [1]): 470 nM
Structure (SMILES): C=C(C)[C@@H]1CC[C@]2(C(=O)O)CC[C@]3(C)[C@H](CC[C@@H]4[C@@]5(C)CC[C@H](OC(=O)c6c(F)c(F)c(F)c(F)c6F)C(C)(C)[C@@H]5CC[C@]43C)[C@@H]12

IC50 (5'-nucleotidase [1]): 740 nM
Structure (SMILES): C=C(C)[C@@H]1CC[C@]2(C(=O)O)CC[C@]3(C)[C@H](CC[C@@H]4[C@@]5(C)CC[C@H](OC(=O)c6ccc(F)c(F)c6)C(C)(C)[C@@H]5CC[C@]43C)[C@@H]12
Activity (MDA-MB-231 [2]): 87.59%

IC50 (5'-nucleotidase [1]): 560 nM
Structure (SMILES): C=C(C)[C@@H]1CC[C@]2(C(=O)O)CC[C@]3(C)[C@H](CC[C@@H]4[C@@]5(C)CC[C@H](OC(=O)c6ccc(F)cc6)C(C)(C)[C@@H]5CC[C@]43C)[C@@H]12

inhibition (Homo sapiens): 85.7%
Structure (SMILES): C=C[C@]1(C)C[C@@H](OC(=O)CSCCN(CC)CC)[C@]2(C)[C@H](C)CC[C@]3(CCC(=O)[C@H]32)[C@@H](C)[C@@H]1O [TIAMULIN]
Activity (MDA-MB-231 [6]): 76.2% | Activity (4T1): 67.01%

inhibition (5'-nucleotidase [10]): 70%
Structure (SMILES): C=C[C@]1(C)C[C@@H](OC(=O)CO)[C@]2(C)[C@H](C)CC[C@]3(CCC(=O)[C@H]32)[C@@H](C)[C@@H]1O

The remaining lines, values behind:

Structure (SMILES): CN(Cc1ccccc1F)c1nc(Cl)nc2c1ncn2[C@@H]1O[C@H](COP(=O)(O)OP(=O)(O)O)[C@@H](O)[C@H]1O
Ki (5'-nucleotidase [3]): 0.318 nM

Structure (SMILES): COC[C@](CO)(OC[C@H]1O[C@@H](n2ncc3c(NC4CCCC4)nc(Cl)nc32)[C@H](O)[C@@H]1O)P(=O)(O)O
IC50 (5'-nucleotidase [4]): 250 nM

Structure (SMILES): CCN(CC)c1nc(Cl)nc2c1ncn2[C@@H]1O[C@H](COCP(=O)(O)OP(=O)(O)C(Br)(Br)P(=O)(O)O)[C@@H](O)[C@H]1O
Ki (5'-nucleotidase [5]): 451 nM

Structure (SMILES): Nc1ncnc2c1ncn2[C@@H]1O[C@H](COP(=O)(O)OP(=O)(O)O)[C@@H](O)[C@H]1O [ADENOSINE DIPHOSPHATE]
Ki (5'-nucleotidase [3]): 88.4 nM | IC50 (5'-nucleotidase [7]): 3.8 nM

Structure (SMILES): C=C(C)[C@@H]1CC[C@]2(C(=O)O)CC[C@]3(C)[C@H](CC[C@@H]4[C@@]5(C)CC[C@H](O)C(C)(C)[C@@H]5CC[C@]43C)[C@@H]12 [BETULINIC ACID]
Ki (5'-nucleotidase [8]): 7800 nM

Structure (SMILES): O=P(O)(O)CP(=O)(O)CC(O)[C@H]1O[C@@H](n2ccnn2)[C@H](O)[C@@H]1O (stereo not given in full)
IC50 (5'-nucleotidase [4]): 860 nM | IC50 (5'-nucleotidase [9]): 860 nM

Structure (SMILES): Cn1c(=O)n([C@@H]2O[C@H](COP(=O)(O)OP(=O)(O)O)[C@@H](O)[C@H]2O)cc/c1=N/Oc1ccccc1
Ki (5'-nucleotidase [5]): 10.1 nM

Structure (SMILES): O=P(O)(O)COC[C@H]1O[C@@H](n2ncc3c(N4CC5(CCc6ccccc65)C4)nc(Cl)nc32)[C@H](O)[C@@H]1O
IC50 (5'-nucleotidase [4]): 50 nM | EC50 [11]: 110 nM

Structure (SMILES): Nc1ncnc2c1ncn2COCCOP(=O)(O)CP(=O)(O)O
Ki (5'-nucleotidase [5]): 12600 nM

— ChEMBL document CHEMBL5620383, “Advances in CD73 inhibitors for immunotherapy: Antibodies, synthetic small molecule compounds, and natural compounds” (Eur J Med Chem, 2023)
